Consider seven compounds from patent US9061984B2 (University of Louisville Research Foundation, Inc., priority 2008, dated 2015).

For one data set, the system named is H460 cells. Kind of data set: Cell growth inhibition bioassay (sulforhodamine B). Type of data set: cell-based, human. The conditions noted are these: Homo sapiens, NCI-H460; 48 h, SRB; read-out: GI50 in indicated cell line: H460. The procedure, abridged:
(§1)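 Growth inhibition was measured colorimetrically with sulforhodamine B staining and expressed as percent inhibition relative to solvent-treated controls. Cell lines were human: MCF-7 breast adenocarcinoma, DU145 and PC3 prostate carcinoma/adenocarcinoma, H460 large cell lung cancer.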

Another data set has as its system MCF-7 cells. As to the kind of experiment: Cell growth inhibition bioassay (sulforhodamine B). It counts as cell-based, human. The following applies: Homo sapiens, MCF7; 48 h, SRB; read-out: GI50 in indicated cell line: MCF-7. The gist of the method:
as §1

The next data set relates to K562 cells. As to the kind of experiment: Cell growth inhibition bioassay (sulforhodamine B). It counts as cell-based, human. The following applies: Homo sapiens, K562; 48 h, SRB; read-out: GI50 in indicated cell line: K562. The gist of the method:
(§2)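 Cells were exposed to compound alongside matched solvent controls, then stained with sulforhodamine B. Percent growth inhibition was calculated from dye absorbance against the control.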

The next data set concerns M-14 cells. Kind of data set: Cell growth inhibition bioassay (sulforhodamine B). It counts as cell-based, human. The conditions noted are these: Homo sapiens, M14; 48 h, SRB; read-out: GI50 in indicated cell line: M-14. The procedure, abridged: as §2
The subject of a further data set is HT-29 cells. Kind of data set: Cell growth inhibition bioassay (sulforhodamine B). It counts as cell-based, human. The following applies: Homo sapiens, HT-29; 48 h, SRB; read-out: GI50 in indicated cell line: HT-29. The procedure, abridged:
as §2

For a further data set, the system named is DU145 cells. As to the kind of experiment: Cell growth inhibition bioassay (sulforhodamine B). The conditions noted are these: Homo sapiens, DU-145; 48 h, SRB; read-out: GI50 in indicated cell line: DU145. It counts as cell-based, human. The procedure, abridged:
as §1

Another data set has as its system 3T3 cells. As to the kind of experiment: Cell growth inhibition bioassay (sulforhodamine B). It counts as cell-based, mouse. The following applies: Mus musculus, NIH3T3; 48 h, SRB; read-out: GI50 in indicated cell line: 3T3. The procedure, abridged:
as §2

Another data set has as its system PC3 cells. Kind of data set: Cell growth inhibition bioassay (sulforhodamine B). It counts as cell-based. The following applies: Homo sapiens, PC-3; 48 h, SRB; read-out: GI50 in indicated cell line: PC3. The method, then:
The cytotoxicity of compounds was assayed as follows. […] Appropriate solvent controls were tested for comparison. The percent inhibition of cell growth relative to the control was evaluated colorimetrically using a sulforhodamine B dye by comparison to the control. The calorimetric procedure followed that published in Skehan et al., J. Nat. Cancer Inst., […], pp. 1107-1112 (1990) and Boyd & Paull, Drug Dev. Res., Vol. 34, pp. 91-109 (1995). […] The cell lines are: 3T3 cells are BALB/3T3 clone A31 embryonic mouse fibroblast cells; H460 cells are human large cell lung cancer cells; DU145 cells are human prostate carcinoma cells; MCF-7 cells are human breast adenocarcinoma cells; M-14 cells are human melanoma cells; HT-29 cells are human colon adenocarcinoma cells; PC3 cells are human prostate adenocarcinoma cells; K562 cells are human chronic myelogenous leukemia cells; and VERO cells are African Green Monkey kidney epithelial cells.

Data set [1] has as its system Trypanosoma cruzi (Tulahuen C4). Kind of data set: In vitro anti-T. cruzi activity (β-galactosidase CPRG colorimetric assay in VERO monolayer). The conditions noted are these: for T. cruzi Inhib. (%) / inhibition at 10 µg/mL: 10 μg/mL of each compound, 120 hours; for inhibition at 10 µg/mL / IC50: Trypanosoma cruzi, TULAHUEN, Vero; for inhibition at 10 µg/mL: 120 h, read-out: T. cruzi Inhib. (%). It counts as cell-based.

In data set [2] the test system is axenic amastigotes of L. amazonensis (strain MHOM/BR/76/LTB-012). Kind of data set: microbe, parasite or virus in culture. The following applies: Leishmania amazonensis, 72 h, read-out: IC50 L. amazonensis.
A further data set concerns L. amazonensis Lma CL1. As to the kind of experiment: Activity against macrophages infected with Leishmania amastigotes. The conditions noted are these: Leishmania amazonensis, Macrophage, 48 h, read-out: IC50 L. amazonensis Lma CL1.
Data set [3] is described as follows: Cytotoxicity on VERO cells (MTT), anti-T. cruzi study. The conditions noted are these: African green monkey, VERO cells, IC50 - VERO Cytotoxicity, Table 2.
Another data set concerns peritoneal macrophages. As to the kind of experiment: Toxicity to peritoneal macrophages (Trypan Blue count). Type of data set: cell-based, BALB/C mouse. The conditions noted are these: Mus musculus, Peritoneal macrophage, 48 h; Table 7; read-out: IC50 Macrophage.
The next data set has as its system L. braziliensis PER006. As to the kind of experiment: Activity against macrophages infected with Leishmania amastigotes. The following applies: Leishmania braziliensis, Macrophage, 48 h, read-out: IC50 L. braziliensis PER006.
In a further data set the test system is L. peruviana LCA08. Described as above. The conditions noted are these: Leishmania peruviana, Macrophage, 48 h, read-out: IC50 L. peruviana LCA08.
In the next data set the test system is VERO cells. As to the kind of experiment: Cytotoxicity on VERO cells (MTT), anti-T. cruzi study. The following applies: for IC50: Chlorocebus sabaeus, Vero, read-out: IC50 VERO, Table 3; for IC50 - VERO Cytotoxicity: Table 2.
Setting [4] is: Table 3, read-out: IC50 T. cruzi.
The mark [5] stands for this setting: Table 2, read-out: IC50 - T. cruzi.

In brackets after ≈: the same amount, converted by molar mass. Several values for one entry are separate records, joined by “and”; a condition that tells them apart may be missing. Identical values can stand only once. Like-named read-outs stand apart in the source and are kept apart here. Some results are limits rather than exact numbers.

Experimental for L. amazonensis Lma CL1: (§3) A cloned line of Leishmania amazonensis(strain MHOM/BR/76/LTB-012) was used in all experiments. Axenically grown amastigote forms of L. amazonensis were maintained by weekly subpassages in MAA/20 medium (Sereno and Lemesre, Antimicrobial Agents and Chemotherapy 41, 972-976 (1997)) at 32±1° C. in 25 cm^2 tissue culture flasks. L. peruviana (strain MHOM/PE/LCA08) and L. braziliensis (strainMHOM/PE/PER006) were maintained in the promastigote stage in a biphasic medium (blood agar with 0.89% NaCl, pH 7.4) at 24° C., with sub-passage every 3 to 4 days. Promastigotes (5×10^6 parasites) were then transferred to 25 cm2 tissue culture flasks containing 5 ml of M199 medium supplemented with 10% foetal bovine serum (FBS), pH 7.4. After 4 days, exponential phase promastigotes were centrifuged for 10 minutes at 1500 g and 4° C. The supernatant was discarded and replaced by fresh M199 medium supplemented with 20% FBS, pH 5.5. Axenic amastigotes transformation was then induced by increasing the temperature to 34° C. and incubating for 96 h (Teixeira et al., Parasitology Research 88, 963-968 (2002)).
(§4) Extracted cells were immediately deposited on sterile 4×4 mm cover glasses and placed in each well of a 96-well plate. Plates were incubated for 24 h at 37° C., 5% CO2 to allow cell adhesion (Castillo et al, Journal of Ethnopharmacology 112, 410-414 (2007)). Pre-warmed complete M199 medium was used twice to remove non-adherent cells. A neutral red method (Fautz et al., Mutation Research 253, 173-179 (1991)) was employed to determine cell concentration. Approximately 7×10^4 viable cells were deposited in each well for adhesion.
(§5) Infection of macrophages by amastigotes was determined as follows. […] Twelve hours after infection, a solution of the compounds to be tested was added to the cultures at various concentrations and maintained at 37° C. in 5% CO2 for a further forty-eight hours more. The plates were fixed with methanol and stained with 10% Giemsa stain. The percentage of infected macrophages was determined microscopically at 100 times magnification. The number of intracellular amastigotes was determined in 300 cells. Following Delorenzi et al. Antimicrobial Agents and Chemotherapy, 45, 1349-1354 (2001)) the percentage of infection rate (% IR) of each culture was calculated as follows: % IR=100−(infection rate of the treated culture/infection rate of the untreated culture)×100.
(§6) All experiments were performed in triplicate. ANOVA was used to test for statistical significance of differences (Epi-Info, Statview student program). The total parasite burden was calculated as a mean number of amastigotes per cells multiplied by the number of infected macrophages.
Experimental for L. braziliensis PER006: as §3, §4, §5, §6
Experimental for L. peruviana LCA08: as §3, §4, §5, §6

A word on the GI50: it is the concentration that inhibits growth by half. Take `O=c1[nH]cc(F)c(=O)[nH]1` [Compound 5FU, 5-Fluorouracil, reference compound]: the 50% growth inhibitory concentration (GI50) in the data set with H460 cells came out at 4.1 µM; with MCF-7 cells, 6.5 µM; in the data set with K562 cells, 16.7 µM; in the data set on M-14 cells, 22.4 µM; with HT-29 cells it was 8.9 µM; in the data set on DU145 cells, 15.4 µM. In addition, the GI50 with 3T3 cells is under 1.54 µM; in the data set on PC3 cells it was 14.6 µM.
For orientation: IC50 means the concentration that gives 50% inhibition. In the case of `COc1ccc(/C=C/C(=O)c2c(O)cc(OC)cc2OC)cc1` [Compound I-01, (2E)-1-(2-Hydroxy-4,6-dimethoxyphenyl)-3-(4-methoxyphenyl)-2-propen-1-one], the GI50 in the data set with H460 cells was 24.1 µM; in the data set with MCF-7 cells, 17.5 µM; in the data set on K562 cells it was 20.5 µM; with M-14 cells, 22.5 µM; in the data set on HT-29 cells, 45.3 µM; in the data set on DU145 cells, 30.8 µM. Also, the concentration for 50% growth inhibition (GI50) in the data set on 3T3 cells was found to be 17.2 µM; in the data set on PC3 cells, 15.2 µM. In addition, the “T. cruzi Inhib. (%)” value in [1] worked out at 41.36%. For the same compound, in data set [1], the inhibition at 10 µg/mL is 29%. Moreover, the IC50 in data set [1] (setting [4]) was over 25 µM; in data set [2] it was 17.2 µM.
As for `COc1cc(O)c(C(=O)/C=C/c2ccc3c(c2)OCO3)c(OC)c1` [Compound I-02, (2E)-3-(1,3-Benzodioxol-5-yl)-1-(2-hydroxy-4,6-dimethoxyphenyl)-2-propen-1-one], the GI50 is over 190 µM with H460 cells; 140 µM in the data set on MCF-7 cells; 18.9 µM in the data set on K562 cells; over 190 µM with M-14 cells; over 190 µM with HT-29 cells; over 190 µM in the data set on DU145 cells. The concentration for 50% growth inhibition (GI50) in the data set with 3T3 cells worked out at 39 µM; in the data set with PC3 cells, 118 µM. Moreover, in data set [1], the “T. cruzi Inhib. (%)” value is recorded as 11.77%. Also, the inhibition at 10 µg/mL in data set [1] was determined as 22.8%. In addition, the half-inhibitory concentration (IC50) in [1] (setting [4]) was over 25 µM; in [2] it was over 300 µM.
For the compound `COc1ccc(/C=C/C(=O)c2c(O)cc(O)cc2OC)cc1` [Compound I-05, (E)-1-(2,4-Dihydroxy-6-methoxyphenyl)-3-(4-methoxyphenyl)-2-propen-1-one], the GI50 with H460 cells was 14 µM; in the data set on MCF-7 cells, 17.3 µM; in the data set with K562 cells, 17 µM; in the data set on M-14 cells, 19.6 µM; in the data set on HT-29 cells it was 21.6 µM; with DU145 cells, 9 µM. Also, the GI50 in the data set with 3T3 cells stood at 6.7 µM; in the data set on PC3 cells, 19.3 µM. The “T. cruzi Inhib. (%)” value in data set [1] was 68.88% and 38.57%. Further, the IC50 in data set [1] (setting [5]) is 5.98 µg/mL; in [1] (setting [4]), over 25 µM; in [2], 10 µM; with L. amazonensis Lma CL1, 14.3 µM; in data set [3], 5 µg/mL (≈ 16.6 µM); with peritoneal macrophages it was 166 µM. Also, the 50% inhibitory concentration (IC50) turned out to be 7.66 µM with L. braziliensis PER006 and 23 µM with L. peruviana LCA08.
Take `COc1cc(O)cc(O)c1C(=O)/C=C/c1ccc2c(c1)OCO2` [Compound I-06, (2E)-3-(1,3-Benzodioxol-5-yl)-1-(2,4-dihydroxy-6-methoxyphenyl)-2-propen-1-one]: the GI50 turned out to be 15.6 µM in the data set with H460 cells; 20.4 µM in the data set on MCF-7 cells; 16.2 µM in the data set with K562 cells; 22.6 µM in the data set on M-14 cells; 20.7 µM in the data set on HT-29 cells; 12.4 µM in the data set on DU145 cells. Besides, the GI50 in the data set on 3T3 cells was 5.1 µM; with PC3 cells, 18.5 µM. The “T. cruzi Inhib. (%)” value in [1] is 49.61% and 69.78%. Also, the IC50 in [1] (setting [5]) was 2.97 µg/mL; in data set [1] (setting [4]), 9.4 µM; in [2], 4.1 µM; in the data set on L. amazonensis Lma CL1 it was 16.6 µM; in [3], 8 µg/mL (≈ 25.5 µM); with VERO cells, 25.5 µM. The IC50 with peritoneal macrophages turned out to be 157 µM; in the data set with L. braziliensis PER006 it was 8.6 µM; with L. peruviana LCA08, 19.7 µM.
`C=CCOc1cc(OC)c(C(=O)/C=C/c2ccc(OC)cc2)c(OCC=C)c1` [Compound I-10, (2E)-1-[2-Methoxy-4,6-bis(2-propenyloxy)phenyl]-3-(4-methoxyphenyl)-2-propen-1-one]: the GI50 turned out to be 20 µM with H460 cells; 19.5 µM with MCF-7 cells; 16.6 µM in the data set on K562 cells; 27.6 µM in the data set on M-14 cells; 28.4 µM in the data set with HT-29 cells; 21 µM in the data set with DU145 cells. For the same compound, the 50% growth inhibitory concentration (GI50) in the data set on 3T3 cells amounted to 41 µM; in the data set on PC3 cells it was 18.1 µM. In addition, the “T. cruzi Inhib. (%)” value in data set [1] worked out at 62.86%. In addition, in data set [1] (Table 2), the “IC50 - T. cruzi” value is 8.14 µg/mL (≈ 21.4 µM). In data set [1], the inhibition at 10 µg/mL was 63.5%. Also, the IC50 in [1] (setting [5]) worked out at 7.28 µg/mL; in data set [1] (setting [4]), 21.4 µM; in [2], 5.5 µM; in data set [3], 48 µg/mL (≈ 126 µM); in the data set with VERO cells it was 99.9 µM; in the data set with peritoneal macrophages, 18.7 µM. Also, the “IC50 - VERO Cytotoxicity” value with VERO cells was determined as 38.00 µg/mL (≈ 99.9 µM).
As to `C=CCOc1cc(OC)c(C(=O)/C=C/c2ccc3c(c2)OCO3)c(OCC=C)c1` [Compound I-19, (2E)-3-(1,3-Benzodioxol-5-yl)-1-[2-methoxy-4,6-bis(2-propenyloxy)phenyl]-2-propen-1-one], the GI50 in the data set with H460 cells was found to be 14.5 µM; in the data set on MCF-7 cells, 10.9 µM; in the data set with K562 cells it was 12.2 µM; in the data set with M-14 cells, 17.2 µM; with HT-29 cells, 24.1 µM; in the data set with DU145 cells, 17.5 µM. Moreover, the concentration for 50% growth inhibition (GI50) was determined as 31.7 µM in the data set on 3T3 cells and 9.6 µM in the data set with PC3 cells. Besides, the “T. cruzi Inhib. (%)” value in [1] stood at 58.82%. The “IC50 - T. cruzi” value in [1] (Table 2) turned out to be 5.35 µg/mL (≈ 13.6 µM). Further, the inhibition at 10 µg/mL in data set [1] came out at 74.1%. Also, the IC50 in [1] (setting [5]) was found to be 7.33 µg/mL; in [1] (setting [4]), 13.6 µM; in data set [2] it was 6.6 µM; in data set [3], 49 µg/mL (≈ 124 µM); in the data set with VERO cells it was 73.5 µM. The “IC50 - VERO Cytotoxicity” value in the data set on VERO cells came to 29.00 µg/mL (≈ 73.5 µM).
